# Experimental data as given in ChEMBL document CHEMBL5500371, “Arginine and tryptophan-rich dendritic antimicrobial peptides that disrupt membranes for bacterial infection in vivo” (Eur J Med Chem, 2024).
# Calls of active or inactive are those of the source. The rule behind the calls is not given here. Where a SMILES comes first, the peptide text is derived from it. Side-chain parts run from the residue outwards.
# What was measured:
# Staphylococcus aureus [1] = assay: Drug resistance, ratio of MIC for Staphylococcus aureus after 14 to 19 passages to MIC for Staphylococcus aureus after initial exposure; type: functional, organism-based
# Escherichia coli [2] = assay: Resistant development in Escherichia coli assessed as increase in MIC at sub-MIC measured after 20 passages; type: functional, organism-based
# Escherichia coli [3] = assay: Drug resistance, ratio of MIC for Escherichia coli after 14 to 19 passages to MIC for Escherichia coli after initial exposure; type: functional, organism-based
# Pseudomonas aeruginosa = assay: Antibacterial activity against Pseudomonas aeruginosa ATCC 27853 assessed as inhibition of bacterial growth incubated for 20 hrs by broth microdilution method; type: functional
# Staphylococcus aureus [4] = assay: Antibacterial activity against Staphylococcus aureus ATCC 25923 assessed as inhibition of bacterial growth preincubated with 10% mouse serum for 6 hrs and measured after 20 hrs by broth microdilution method; type: functional; settings: time 21 hrs
# [5] = (§1) Cytotoxicity against HEK293T cells assessed as cell death measured after 1 hr by resazurin dye based analysis; type: toxicity, HEK-293T; settings: human, HEK293T cells
# Staphylococcus aureus [6] = assay: Antibacterial activity against Staphylococcus aureus ATCC 25923 assessed as inhibition of bacterial growth incubated for 20 hrs in presence of FeCl3 by broth microdilution method (reference value: 8 microM); type: functional
# Escherichia coli [7] = assay: Antibacterial activity against Escherichia coli ATCC 25922 assessed as inhibition of bacterial growth incubated for 20 hrs in presence of KCl by broth microdilution method (reference value: 8 microM); type: functional
# Staphylococcus aureus [8] = assay: Antibacterial activity against Staphylococcus aureus ATCC 25923 assessed as inhibition of bacterial growth by measuring fold increase in MIC incubated for 20 hrs in presence of NaCl by broth microdilution method relative to control; type: functional
# Staphylococcus aureus [9] = assay: Antibacterial activity against Staphylococcus aureus ATCC 25923 assessed as inhibition of bacterial growth incubated for 20 hrs in presence of NaCl by broth microdilution method (reference value: 8 microM); type: functional
# Escherichia coli [10] = assay: Antibacterial activity against Escherichia coli ATCC 25922 assessed as inhibition of bacterial growth incubated for 20 hrs in presence of NaCl by broth microdilution method (reference value: 8 microM); type: functional
# Erythrocyte = assay: Hemolytic activity in mouse erythrocytes assessed as 10% hemolysis incubated for 1 hr by absorbance based analysis; type: toxicity, cell-based
# Staphylococcus aureus [11] = assay: Antibacterial activity against Staphylococcus aureus ATCC 25923 assessed as inhibition of bacterial growth by measuring fold increase in MIC incubated for 20 hrs in presence of MgCl2 by broth microdilution method relative to control; type: functional
# Escherichia coli [12] = assay: Antibacterial activity against Escherichia coli ATCC 25922 assessed as inhibition of bacterial growth preincubated with 10% mouse serum for 6 hrs and measured after 20 hrs by broth microdilution method; type: functional; settings: time 26 hrs
# [13] = Therapeutic index, ratio of MHC10 for hemolytic activity in mouse erythrocytes preincubated with 10% mouse serum for 1 hr to MIC for Staphylococcus aureus ATCC 25923 preincubated with 10% mouse serum for 1 hr; type: toxicity, cell-based
# Staphylococcus aureus [14] = assay: Antibacterial activity against Staphylococcus aureus ATCC 25923 assessed as inhibition of bacterial growth incubated for 20 hrs by broth microdilution method; type: functional
# Escherichia coli [15] = assay: Antibacterial activity against Escherichia coli ATCC 25922 assessed as inhibition of bacterial growth incubated for 20 hrs by broth microdilution method; type: functional
# Staphylococcus aureus [16] = assay: Antibacterial activity against Staphylococcus aureus ATCC 25923 assessed as inhibition of bacterial growth by measuring fold increase in MIC incubated for 20 hrs in presence of KCl by broth microdilution method relative to control; type: functional
# [17] = Therapeutic index, ratio of MHC10 for hemolytic activity in mouse erythrocytes preincubated with 10% mouse serum for 6 hrs to MIC for Escherichia coli ATCC 25922 preincubated with 10% mouse serum for 6 hrs; type: toxicity, cell-based
# Staphylococcus aureus [18] = assay: Antibacterial activity against Staphylococcus aureus ATCC 25923 assessed as inhibition of bacterial growth incubated for 20 hrs in presence of KCl by broth microdilution method (reference value: 8 microM); type: functional
# Escherichia coli [19] = assay: Antibacterial activity against Escherichia coli ATCC 25922 assessed as inhibition of bacterial growth incubated for 20 hrs in presence of FeCl3 by broth microdilution method (reference value: 8 microM); type: functional
# Staphylococcus aureus [20] = assay: Antibacterial activity against Staphylococcus aureus ATCC 25923 assessed as inhibition of bacterial growth by measuring fold increase in MIC incubated for 20 hrs in presence of ZnCl2 by broth microdilution method relative to control; type: functional
# Staphylococcus aureus [21] = assay: Antibacterial activity against Staphylococcus aureus ATCC 25923 assessed as inhibition of bacterial growth preincubated with 10% mouse serum for 1 hr and measured after 20 hrs by broth microdilution method; type: functional; settings: time 21 hrs
# [22] = Therapeutic index, ratio of MHC10 for hemolytic activity in mouse erythrocytes preincubated with 10% mouse serum for 1 hr to MIC for Escherichia coli ATCC 25922 preincubated with 10% mouse serum for 1 hr; type: toxicity, cell-based
# Escherichia coli [23] = assay: Antibacterial activity against Escherichia coli ATCC 25922 assessed as inhibition of bacterial growth incubated for 20 hrs in presence of MgCl2 by broth microdilution method (reference value: 8 microM); type: functional
# Escherichia coli [24] = assay: Antibacterial activity against Escherichia coli ATCC 25922 assessed as inhibition of bacterial growth incubated for 20 hrs in presence of ZnCl2 by broth microdilution method (reference value: 8 microM); type: functional
# Staphylococcus aureus [25] = assay: Antibacterial activity against Staphylococcus aureus ATCC 25923 assessed as inhibition of bacterial growth by measuring fold increase in MIC incubated for 20 hrs in presence of FeCl3 by broth microdilution method relative to control; type: functional
# Staphylococcus aureus [26] = assay: Antibacterial activity against Staphylococcus aureus ATCC 25923 assessed as inhibition of bacterial growth incubated for 20 hrs in presence of MgCl2 by broth microdilution method (reference value: 8 microM); type: functional
# Staphylococcus aureus [27] = assay: Antibacterial activity against Staphylococcus aureus ATCC 25923 assessed as inhibition of bacterial growth incubated for 20 hrs in presence of ZnCl2 by broth microdilution method (reference value: 8 microM); type: functional
# [28] = Hemolytic activity in mouse erythrocytes at 256 uM preincubated for 1 to 6 hr with 10% mouse serum and measured after 1 hr by absorbance based analysis; type: toxicity, cell-based, Erythrocyte; settings: time 1-7 hrs, read-out: Activity
# [29] = Stability in mouse serum assessed as half life at 10 mM measured upto 24 hrs by RP-HPLC analysis; type: ADME, cell-free
# [30] = Therapeutic index, ratio of MHC10 for hemolytic activity in mouse erythrocytes preincubated with 10% mouse serum for 6 hrs to MIC for Staphylococcus aureus ATCC 25923 preincubated with 10% mouse serum for 6 hrs; type: toxicity, cell-based
# Klebsiella pneumoniae = assay: Antibacterial activity against Klebsiella pneumoniae ATCC 700603 assessed as inhibition of bacterial growth incubated for 20 hrs by broth microdilution method; type: functional
# Acinetobacter baumannii = assay: Antibacterial activity against Acinetobacter baumannii ATCC 19606 assessed as inhibition of bacterial growth incubated for 20 hrs by broth microdilution method; type: functional
# Bacillus subtilis = assay: Antibacterial activity against Bacillus subtilis ATCC 23857 assessed as inhibition of bacterial growth incubated for 20 hrs by broth microdilution method; type: functional
# Escherichia coli [31] = assay: Antibacterial activity against Escherichia coli ATCC 25922 assessed as inhibition of bacterial growth preincubated with 10% mouse serum for 1 hr and measured after 20 hrs by broth microdilution method; type: functional; settings: time 21 hrs
# HEK-293T = assay: as §1; type: toxicity; settings: human, hek-293t, 1 h
# [32] = Acute toxicity in male BALB/c mouse assessed as respiratory asthenia at 16.3 to 24.5 mg/kg, ip administered as single dose and measured after 60 mins; type: organism-based; settings: in vivo, 1 h, dose 16.3-24.5 mg/kg
# [33] = Acute toxicity in male BALB/c mouse assessed as convulsions at 16.3 to 24.5 mg/kg, ip administered as single dose and measured after 60 mins; type: organism-based; settings: in vivo, 1 h, dose 16.3-24.5 mg/kg
# [34] = Systemic toxicity in male BALB/c mouse assessed as severe hepatocyte necrosis at 20.83 mg/kg, ip administered as single dose by H and E staining based analysis; type: organism-based; settings: hepatocytes
# [35] = Acute toxicity in ip dosed male BALB/c mouse administered as single dose; type: organism-based; settings: in vivo, ip
# [36] = Acute toxicity in male BALB/c mouse assessed as eye closure at 16.3 to 24.5 mg/kg, ip administered as single dose and measured after 60 mins; type: organism-based; settings: in vivo, 1 h, dose 16.3-24.5 mg/kg
# [37] = Systemic toxicity in male BALB/c mouse assessed as pathological changes in heart at 20.83 mg/kg, ip administered as single dose by H and E staining based analysis; type: organism-based; settings: in vivo
# [38] = Acute toxicity in male BALB/c mouse assessed as mortality rate at 24.5 mg/kg, ip administered as single dose and measured after 120 mins relative to control; type: organism-based; settings: in vivo, 2 h
# [39] = Systemic toxicity in male BALB/c mouse assessed as marked alveolar cavity wrinkling at 20.83 mg/kg, ip administered as single dose by H and E staining based analysis; type: organism-based; settings: in vivo
# [40] = Systemic toxicity in male BALB/c mouse assessed as hemorrhage at 20.83 mg/kg, ip administered as single dose by H and E staining based analysis; type: organism-based; settings: in vivo
# [41] = Systemic toxicity in male BALB/c mouse assessed as inflammatory cell infiltration at 20.83 mg/kg, ip administered as single dose by H and E staining based analysis; type: organism-based; settings: in vivo
# [42] = Acute toxicity in male BALB/c mouse assessed as animal death at 16.3 to 24.5 mg/kg, ip administered as single dose and measured after 60 mins; type: organism-based; settings: in vivo, 1 h, dose 16.3-24.5 mg/kg
# [43] = mouse erythrocytes, read-out: TI
compound,measurement,setting,value
GENTAMICIN,Ratio,Staphylococcus aureus [1],32
same,Activity,Escherichia coli [2],Active
same,Ratio,Escherichia coli [3],32
N=C(N)NCCC[C@H](NC(=O)[C@H](CCCNC(=N)N)NC(=O)[C@H](CCCNC(=N)N)NC(=O)[C@H](CCCNC(=N)N)NC(=O)[C@H](CCCCNC(=O)[C@H](Cc1c[nH]c2ccccc12)NC(=O)[C@@H](N)Cc1c[nH]c2ccccc12)NC(=O)[C@H](Cc1c[nH]c2ccccc12)NC(=O)[C@@H](N)Cc1c[nH]c2ccccc12)C(N)=O (H-WWK([Trp-Trp])RRRR-NH2),MIC,Pseudomonas aeruginosa,32 µM
same,MIC,Staphylococcus aureus [4],8 µM
same,CC50 at 1 h,[5],> 128 µM
same,MIC,Staphylococcus aureus [6],8 µM
same,MIC,Escherichia coli [7],8 µM
same,fold change (FC),Staphylococcus aureus [8],<=2
same,MIC,Staphylococcus aureus [9],8 µM
same,MIC,Escherichia coli [10],16 µM
same,MHC10,Erythrocyte,> 256 µM
same,fold change (FC),Staphylococcus aureus [11],<=2
same,MIC,Escherichia coli [12],16 µM
same,selectivity ratio,[13]; [43],0.5
same,MIC,Staphylococcus aureus [14],8 µM
same,MIC,Escherichia coli [15],8 µM
same,fold change (FC),Staphylococcus aureus [16],<=2
same,selectivity ratio,[17]; [43],0.06
same,MIC,Staphylococcus aureus [18],8 µM
same,MIC,Escherichia coli [19],8 µM
same,fold change (FC),Staphylococcus aureus [20],<=2
same,MIC,Staphylococcus aureus [21],2 µM
same,selectivity ratio,[22]; [43],0.5
same,MIC,Escherichia coli [23],8 µM
same,MIC,Escherichia coli [24],8 µM
same,fold change (FC),Staphylococcus aureus [25],<=2
same,MIC,Staphylococcus aureus [26],8 µM
same,MIC,Staphylococcus aureus [27],8 µM
same,"hemolysis at 1 h, 256 µM",[28],< 10%
same,half-life at 10000 µM,[29],32.4 min
same,selectivity ratio,[30]; [43],0.13
same,MIC,Klebsiella pneumoniae,128 µM
same,MIC,Acinetobacter baumannii,64 µM
same,MIC,Bacillus subtilis,8 µM
same,MIC,Escherichia coli [31],2 µM
POLYMYXIN B,CC50,HEK-293T,> 128 µM
same,Activity,[32],Toxic
same,Activity,[33],Toxic
same,MHC10,Erythrocyte,> 256 µM
same,Activity,[34],Toxic
same,LD50,[35],20.83 mg/kg
same,TI,[13]; erythrocytes,1
same,Activity,[36],Toxic
same,Activity,[37],Non-Toxic
same,TI,[17]; erythrocytes,0.5
same,Activity,[38],100%
same,TI,[22]; erythrocytes,1
same,Activity,[39],Toxic
same,Activity,[40],Toxic
same,TI,[30]; erythrocytes,1
same,Activity,[41],Toxic
same,Activity,[42],Toxic
